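Five compound concentrations were applied to cells in 96-well plates for 48 hours; endpoints were derived by simple linear interpolation of the resulting dose-response curve. GI50 is the concentration that inhibits growth by half. The concentration for full growth arrest is given as TGI.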
Key:
Assay in all cases: DTP human tumour cell line panel, 48 h
[1] = test system: HCC-2998 colon
[2] = test system: SK-MEL-5 melanoma
[3] = test system: PC-3 prostate
[4] = test system: NCI-H226 lung
[5] = test system: SF-295 CNS
[6] = test system: T-47D breast
[7] = test system: COLO 205 colon
[8] = test system: HCT-116 colon
[9] = test system: HS 578T breast
[10] = test system: UACC-257 melanoma
[11] = test system: MALME-3M melanoma
[12] = test system: MOLT-4 leukemia
[13] = test system: OVCAR-5 ovarian
[14] = test system: SK-MEL-2 melanoma
[15] = test system: SR leukemia
[16] = test system: CCRF-CEM leukemia
[17] = test system: OVCAR-4 ovarian
[18] = test system: SF-539 CNS
[19] = test system: NCI/ADR-RES ovarian
[20] = test system: 786-0 renal
[21] = test system: SK-MEL-28 melanoma
[22] = test system: SW-620 colon
[23] = test system: HCT-15 colon
[24] = test system: HT29 colon
[25] = test system: SK-OV-3 ovarian
[26] = test system: BT-549 breast
[27] = test system: LOX IMVI melanoma
[28] = test system: OVCAR-8 ovarian
[29] = test system: KM12 colon
[30] = test system: NCI-H522 lung
[31] = test system: HL-60(TB) leukemia
[32] = test system: TK-10 renal
[33] = test system: UACC-62 melanoma
[34] = test system: HOP-62 NSCLC
[35] = test system: M14 melanoma
[36] = test system: UO-31 renal
[37] = test system: DU-145 prostate
[38] = test system: ACHN renal
[39] = test system: NCI-H23 lung
[40] = test system: SF-268 CNS
[41] = test system: NCI-H460 lung
[42] = test system: RPMI-8226 leukemia
[43] = test system: U251 CNS
[44] = test system: EKVX NSCLC
[45] = test system: IGROV1 ovarian
[46] = test system: OVCAR-3 ovarian
[47] = test system: MDA-MB-435
[48] = test system: SNB-75 CNS
[49] = test system: SNB-19 CNS
[50] = test system: A498 renal
[51] = test system: SN12C renal
[52] = test system: CAKI-1 renal
[53] = test system: K-562 leukemia
[54] = test system: A549 NSCLC
[55] = test system: MCF7 breast
[56] = test system: MDA-MB-231 breast
[57] = test system: RXF 393 renal

`CCC(CC)COC(=O)[C@H](C)N[P@](=O)(OC[C@H]1O[C@@](C#N)(c2ccc3c(N)ncnn23)[C@H](O)[C@@H]1O)Oc1ccccc1` was tested, and the GI50 [1] was 5.39 µM, the TGI [1] was > 100 µM and the GI50 [2] was 5.24 µM. It also gave a TGI [2] of 17.5 µM, a GI50 [3] of 3.58 µM and a TGI [3] of 14.2 µM. For the same molecule, the GI50 [4] was 7.61 µM, the TGI [4] was 49.1 µM and the GI50 [5] was 31 µM. The TGI [5] was > 100 µM, the GI50 [6] was 1.82 µM and the TGI [6] was > 100 µM. For the same molecule, the GI50 [7] was 2.46 µM, the TGI [7] was 18.4 µM and the GI50 [8] was 2.24 µM. For the same molecule, the TGI [8] was 30.2 µM, the GI50 [9] was 13.2 µM and the TGI [9] was > 100 µM. For the same molecule, the GI50 [10] was 2.73 µM, the TGI [10] was 15.7 µM and the GI50 [11] was 2.08 µM. For the same molecule, the TGI [11] was 6.91 µM, the GI50 [12] was 2.79 µM and the TGI [12] was 31.2 µM. The GI50 [13] was 40.2 µM, the TGI [13] was > 100 µM and the GI50 [14] was 0.97 µM. It also gave a TGI [14] of 4.51 µM, a GI50 [15] of 1 µM and a TGI [15] of 32.4 µM. For the same molecule, the GI50 [16] was 3.51 µM, the TGI [16] was 51.6 µM and the GI50 [17] was 3.02 µM. It also gave a TGI [17] of 66 µM, a GI50 [18] of 10.8 µM and a TGI [18] of 37.3 µM. The GI50 [19] was > 100 µM, the TGI [19] was > 100 µM and the GI50 [20] was 6.08 µM. The TGI [20] was > 100 µM, the GI50 [21] was 2.83 µM and the TGI [21] was 11.8 µM. For the same molecule, the GI50 [22] was 1.92 µM, the TGI [22] was > 100 µM and the GI50 [23] was 29.1 µM. The TGI [23] was > 100 µM, the GI50 [24] was 6.08 µM and the TGI [24] was > 100 µM. For the same molecule, the GI50 [25] was 2.65 µM, the TGI [25] was > 100 µM and the GI50 [26] was 9.62 µM. For the same molecule, the TGI [26] was 50.7 µM, the GI50 [27] was 3.58 µM and the TGI [27] was 22.1 µM. The GI50 [28] was 5.91 µM, the TGI [28] was > 100 µM and the GI50 [29] was 15.3 µM. For the same molecule, the TGI [29] was > 100 µM, the GI50 [30] was 1.29 µM and the TGI [30] was 27.3 µM. For the same molecule, the GI50 [31] was 0.701 µM, the TGI [31] was 8.62 µM and the GI50 [32] was 9.85 µM. The TGI [32] was > 100 µM, the GI50 [33] was 2.56 µM and the TGI [33] was 11 µM. The GI50 [34] was 6.34 µM, the TGI [34] was > 100 µM and the GI50 [35] was 1.95 µM. The TGI [35] was 12.2 µM, the GI50 [36] was 41.3 µM and the TGI [36] was > 100 µM. For the same molecule, the GI50 [37] was 8.44 µM, the TGI [37] was > 100 µM and the GI50 [38] was 18.3 µM. The TGI [38] was > 100 µM, the GI50 [39] was 2.59 µM and the TGI [39] was 12.1 µM. For the same molecule, the GI50 [40] was 4.29 µM, the TGI [40] was > 100 µM and the GI50 [41] was 4.83 µM. The TGI [41] was > 100 µM, the GI50 [42] was 1.02 µM and the TGI [42] was 10.6 µM. For the same molecule, the GI50 [43] was 15.9 µM, the TGI [43] was > 100 µM and the GI50 [44] was 19.1 µM. For the same molecule, the TGI [44] was > 100 µM, the GI50 [45] was 2.72 µM and the TGI [45] was 95.2 µM. The GI50 [46] was 2.35 µM, the TGI [46] was 18.5 µM and the GI50 [47] was 4.53 µM. It also gave a TGI [47] of 25.1 µM, a GI50 [48] of 2.75 µM and a TGI [48] of 91.6 µM. For the same molecule, the GI50 [49] was 15.7 µM, the TGI [49] was > 100 µM and the GI50 [50] was 0.359 µM. The TGI [50] was 8.57 µM, the GI50 [51] was 7.73 µM and the TGI [51] was > 100 µM. The GI50 [52] was 4.19 µM, the TGI [52] was > 100 µM and the GI50 [53] was 0.597 µM. The TGI [53] was > 100 µM, the GI50 [54] was 47.7 µM and the TGI [54] was > 100 µM. It also gave a GI50 [55] of 3.45 µM, a TGI [55] of 27.3 µM and a GI50 [56] of 5.46 µM. For the same molecule, the TGI [56] was 81.3 µM, the GI50 [57] was 2.8 µM and the TGI [57] was 23.3 µM.
